System: HCV replicon
Assay: HCV replicon luciferase reporter assay
Type: cell-based
Conditions: Hepatitis C virus, Table 5; read-out: IC50
How it was run: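 Replicon-bearing dividing cells seeded at 5,000–7,500 cells/well, grown 24 h at 37° C/5% CO2, then exposed to test compound at various concentrations for a further 24–48 h. Replication/translation read by luciferase reporter; IC50 taken as compound amount giving 50% reduction in luciferase activity.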

Structure (SMILES)	IC50
O=C(NCCCNc1nsc2ccccc12)c1cccc(I)c1 [Compound 386, N-(3-(benzo[d]isothiazol-3-ylamino)propyl)-3-iodobenzamide]	< 5 µM
O=C(NCCCNc1nsc2ccccc12)Nc1ccc(I)cc1 [Compound 387, 1-(3-(benzo[d]isothiazol-3-ylamino)propyl)-3-(4-iodophenyl)urea]	< 5 µM
COc1ccc(-c2cccc(C(=O)NCCCNc3nsc4ccccc34)c2)cn1 [Compound 388, N-(3-(benzo[d]isothiazol-3-ylamino)propyl)-3-(6-methoxypyridin-3-yl)benzamide]	< 5 µM
CC(C)(C)OC(=O)N1CC=C(c2cccc(C(=O)NCCCNc3nsc4ccccc34)c2)CC1 [Compound 390, tert-butyl 4-(3-(3-(benzo[d]isothiazol-3-ylamino)propylcarbamoyl)phenyl)-5,6-dihydropyridine-1(2H)-carboxylate]	< 5 µM
CCOc1cc(OCC)cc(C(=O)NCCCNc2nsc3ccccc23)c1 [Compound 391, N-(3-(benzo[d]isothiazol-3-ylamino)propyl)-3,5-diethoxybenzamide]	< 5 µM
Cc1ccc(OC(C)C)c(-c2ccc(NC(=O)NCCCNc3nsc4ccccc34)cc2)c1 [Compound 392, 1-(3-(benzo[d]isothiazol-3-ylamino)propyl)-3-(2′-isopropoxy-5′-methylbiphenyl-4-yl)urea]	< 5 µM
COc1cc(F)ccc1-c1ccc(NC(=O)NCCCNc2nsc3ccccc23)cc1 [Compound 393, 1-(3-(benzo[d]isothiazol-3-ylamino)propyl)-3-(4′-fluoro-2′-methoxybiphenyl-4-yl)urea]	< 5 µM
O=C(NCCCNc1nsc2ccccc12)c1cccc(C2=CCNCC2)c1 [Compound 394, N-(3-(benzo[d]isothiazol-3-ylamino)propyl)-3-(1,2,3,6-tetrahydropyridin-4-yl)benzamide]	< 5 µM
COc1ccccc1-c1ccc(NC(=O)NCCCNc2nsc3ccccc23)cc1 [Compound 395, 1-(3-(benzo[d]isothiazol-3-ylamino)propyl)-3-(2′-methoxybiphenyl-4-yl)urea]	< 5 µM
O=C(NCCCNc1nsc2ccccc12)c1ccc(O)c(Br)c1 [Compound 396, N-(3-(benzo[d]isothiazol-3-ylamino)propyl)-3-bromo-4-hydroxybenzamide]	< 5 µM
O=C(NCCCNc1nsc2ccccc12)c1ccc(OCCN2CCOCC2)c(Br)c1 [Compound 397, N-(3-(benzo[d]isothiazol-3-ylamino)propyl)-3-bromo-4-(2-morpholinoethoxy)benzamide]	< 5 µM
COc1ccc(-c2ccc(C(=O)NCCCNc3nsc4cccc(S(=O)(=O)NC(C)(C)C)c34)cc2)cc1 [Compound 398, N-(3-(4-(N-tert-butylsulfamoyl)benzo[d]isothiazol-3-ylamino)propyl)-4′-methoxybiphenyl-4-carboxamide]	> 5 µM
COc1ccc(-c2ccc(C(=O)NCCCNc3nsc4cc(S(=O)(=O)NC(C)(C)C)ccc34)cc2)cc1 [Compound 399, N-(3-(6-(N-tert-butylsulfamoyl)benzo[d]isothiazol-3-ylamino)propyl)-4′-methoxybiphenyl-4-carboxamide]	> 5 µM
COc1ccc(-c2ccc(C(=O)NCCCNc3nsc4c(S(=O)(=O)C(C)(C)C)cccc34)cc2)cc1 [Compound 400, N-(3-(7-(tert-butylsulfonyl)benzo[d]isothiazol-3-ylamino)propyl)-4′-methoxybiphenyl-4-carboxamide]	< 5 µM
COc1ccc(-c2ccc(C(=O)NCCCNc3nsc4cccc(S(N)(=O)=O)c34)cc2)cc1 [Compound 401, 4′-methoxy-N-(3-(4-sulfamoylbenzo[d]isothiazol-3-ylamino)propyl)biphenyl-4-carboxamide]	> 5 µM
COc1ccc(-c2ccc(C(=O)NCCCNc3nsc4cc(S(N)(=O)=O)ccc34)cc2)cc1 [Compound 402, 4′-methoxy-N-(3-(6-sulfamoylbenzo[d]isothiazol-3-ylamino)propyl)biphenyl-4-carboxamide]	< 5 µM
COc1ccc(-c2ccc(CNCCCNc3nsc4ccc(Br)cc34)cc2)cc1 [Compound 404, N^1-(5-bromobenzo[d]isothiazol-3-yl)-N^3-((4′-methoxybiphenyl-4-yl)methyl)propane-1,3-diamine]	< 5 µM
COc1ccc(-c2ccc(C(=O)NCCCNc3nsc4ccc(-c5ccccc5)cc34)cc2)cc1 [Compound 405, 4′-methoxy-N-(3-(5-phenylbenzo[d]isothiazol-3-ylamino)propyl)biphenyl-4-carboxamide]	< 5 µM
COc1ccc(-c2ccc(C(=O)NCCCNc3nsc4ccc(-c5ccc(OC)cc5)cc34)cc2)cc1 [Compound 406, 4′-methoxy-N-(3-(5-(4-methoxyphenyl)benzo[d]isothiazol-3-ylamino)propyl)biphenyl-4-carboxamide]	< 5 µM
COc1ccc(-c2ccc(C(=O)NCCCNc3nsc4ccc(-c5cccc(OC)c5F)cc34)cc2)cc1 [Compound 407, N-(3-(5-(2-fluoro-3-methoxyphenyl)benzo[d]isothiazol-3-ylamino)propyl)-4′-methoxybiphenyl-4-carboxamide]	< 5 µM
COc1ccc(-c2ccc(C(=O)NCCCNc3nsc4ccc(-c5ccc(OC(C)C)cc5)cc34)cc2)cc1 [Compound 409, N-(3-(5-(4-isopropoxyphenyl)benzo[d]isothiazol-3-ylamino)propyl)-4′-methoxybiphenyl-4-carboxamide]	< 5 µM

Structure (SMILES)	IC50
COc1ccc(-c2ccc(CNCCCNc3nsc4ccc(-c5ccc(OC)cc5)cc34)cc2)cc1 [Compound 410, N^1-((4′-methoxybiphenyl-4-yl)methyl)-N^3-(5-(4-methoxyphenyl)benzo[d]isothiazol-3-yl)propane-1,3-diamine]	< 5 µM
COc1ccc(-c2ccc(CNCCCNc3nsc4ccc(-c5cc(F)cc(F)c5)cc34)cc2)cc1 [Compound 411, N^1-(5-(3,5-difluorophenyl)benzo[d]isothiazol-3-yl)-N^3-((4′-methoxybiphenyl-4-yl)methyl)propane-1,3-diamine]	< 5 µM
Cn1c(C(=O)NCCNc2nsc3ccccc23)cc2ccccc21 [Compound 412, N-(2-(benzo[d]isothiazol-3-ylamino)ethyl)-1-methyl-1H-indole-2-carboxamide]	< 5 µM
O=C(NCCNc1nsc2ccccc12)c1cc(-c2ccccc2)n[nH]1 [Compound 413, N-(2-(benzo[d]isothiazol-3-ylamino)ethyl)-3-phenyl-1H-pyrazole-5-carboxamide]	> 5 µM
O=Cc1cccc(C(=O)NCCNc2nsc3ccccc23)c1 [Compound 414, N-(2-(benzo[d]isothiazol-3-ylamino)ethyl)-3-formylbenzamide]	> 5 µM
O=Cc1ccc(C(=O)NCCNc2nsc3ccccc23)cc1 [Compound 415, N-(2-(benzo[d]isothiazol-3-ylamino)ethyl)-4-formylbenzamide]	> 5 µM
O=C(NCCNc1nsc2ccccc12)c1cccc(CO)c1 [Compound 416, N-(2-(benzo[d]isothiazol-3-ylamino)ethyl)-3-(hydroxymethyl)benzamide]	> 5 µM
c1ccc2c(NCCNc3nsc4ccccc34)nsc2c1 [Compound 417, N^1,N^2-di(benzo[d]isothiazol-3-yl)ethane-1,2-diamine]	> 5 µM
CCCNC(=O)c1ccc(C(=O)NCCNc2nsc3ccccc23)cc1 [Compound 418, N^1-(2-(benzo[d]isothiazol-3-ylamino)ethyl)-N^4-propylterephthalamide]	> 5 µM
O=C(NCCCNc1nsc2ccccc12)c1cccc(Br)n1 [Compound 419, N-(3-(benzo[d]isothiazol-3-ylamino)propyl)-6-bromopicolinamide]	< 5 µM
O=C(NCCCNc1nsc2ccccc12)c1cccc(F)n1 [Compound 420, N-(3-(benzo[d]isothiazol-3-ylamino)propyl)-6-fluoropicolinamide]	> 5 µM
CCCCc1ccc(C(=O)NCCNc2nsc3ccc(Cl)cc23)cc1 [Compound 421, 4-butyl-N-(2-(5-chlorobenzo[d]isothiazol-3-ylamino)ethyl)benzamide]	< 5 µM
CCCCNC(=O)c1ccc(C(=O)NCCNc2nsc3ccccc23)cc1 [Compound 422, N^1-(2-(benzo[d]isothiazol-3-ylamino)ethyl)-N^4-butylterephthalamide]	< 5 µM
CCCCCOc1ccc(C(=O)NCCNc2nsc3ccc(Cl)cc23)cc1 [Compound 423, N-(2-(5-chlorobenzo[d]isothiazol-3-ylamino)ethyl)-4-(pentyloxy)benzamide]	< 5 µM
CC(C)(C)OC(=O)N1CCCC(C(=O)NCCNc2nsc3ccc(Cl)cc23)C1 (stereo not drawn) [Compound 424, tert-butyl 3-(2-(5-chlorobenzo[d]isothiazol-3-ylamino)ethylcarbamoyl)piperidine-1-carboxylate]	< 5 µM
CC(C)(C)OC(=O)N[C@H](C(=O)NCCNc1nsc2ccc(Cl)cc12)c1ccccc1 [Compound 425, (S)-tert-butyl 2-(2-(5-chlorobenzo[d]isothiazol-3-ylamino)ethylamino)-2-oxo-1-phenylethylcarbamate]	< 5 µM
CC(C)NC(=O)c1ccc(C(=O)NCCNc2nsc3ccccc23)cc1 [Compound 426, N^1-(2-(benzo[d]isothiazol-3-ylamino)ethyl)-N^4-isopropylterephthalamide]	< 5 µM
O=C(NCCNc1nsc2ccccc12)c1ccc(C(=O)NC2CC2)cc1 [Compound 427, N^1-(2-(benzo[d]isothiazol-3-ylamino)ethyl)-N^4-cyclopropylterephthalamide]	< 5 µM
CCCNC(=O)c1cccc(C(=O)NCCNc2nsc3ccccc23)c1 [Compound 428, N^1-(2-(benzo[d]isothiazol-3-ylamino)ethyl)-N^3-propylisophthalamide]	< 5 µM
CCCCNC(=O)c1cccc(C(=O)NCCNc2nsc3ccccc23)c1 [Compound 429, N^1-(2-(benzo[d]isothiazol-3-ylamino)ethyl)-N^3-butylisophthalamide]	< 5 µM
CC(C)NC(=O)c1cccc(C(=O)NCCNc2nsc3ccccc23)c1 [Compound 430, N^1-(2-(benzo[d]isothiazol-3-ylamino)ethyl)-N^3-isopropylisophthalamide]	< 5 µM

Reference: US7776847B2, “Benzisothiazoles useful for treating or preventing HCV infection” (priority 2005, dated 2010)
